Assay results taken from patent publication US8628961B2, “Small molecule antagonists of phosphatidylinositol-3,4,5-triphosphate (PIP3) and uses thereof” (Tufts University, priority 2010, dated 2014).
Like-named read-outs stand apart in the source and are kept apart here.

How the values were obtained:
SUM159 cells = experiment: Cell polarization in wounded monolayers after PDGF; type: cell-based, human; settings: wound healing model, 100 μM
Protocol: In order to measure cell polarization, wounds were generated in SUM159 cell monolayers, followed by serum starvation and treatment with 100 μM PIT-1, PIT-2, PIT-1i-1, or PIT-1i-2 for 2 hr. Cells were stimulated for 15 min with 100 ng/ml PDGF, fixed and stained with TRITC-phalloidin for F-actin (red), acetylated tubulin antibody (green) for microtubule organization center (MTOC), and Hoechst for nuclei (blue). Cell polarization was evaluated by analysis of the relative location of the MTOC and nucleus. […] The number of polarized cells was counted in five random fields under fluorescent microscope.

PI3K-PDK1-Akt pathway = experiment: PIP3-regulated phosphorylation events in U87MG cells; type: cell-based, human
Protocol: The effect of PIT-1 on PIP3-mediated signaling was examined in U87MG glioblastoma cells, which show elevated basal levels of PIP3 due to the loss of PTEN. Pore N et al. (2003) Cancer Res 63:236-41.

[1] = tested on: multiple cancer cell lines; experiment: Cancer cell viability, MTS or ATP assays; type: cell-based; settings: dose- and time-dependent
Protocol: (§1) Based on the critical role of PIP3-dependent […] signaling in the regulation of cell survival, the effect of PIT-1 on the cancer cell viability was tested. Cancer cells were seeded into 96-well plates (white plates for ATP assay; black plates for fluorescent assay; clear plates for MTS assay) at the density of 5-10×10^3 cells per well in 100 μl of the appropriate media. Compounds were added at a series of concentrations and incubated for different times. For the ATP assay, a luminescence-based commercial kit (CellTiter-Glo, Promega, Madison, Wis.) was used. Thirty microliters of cell lysis/ATP detection reagent was added to each well, mixed for 10 min at room temperature, and the luminescence was measured using a Wallac Victor 3 plate reader (Perkin-Elmer, Wellesley, Mass.). For the MTS assay, a CellTiter 96 AQueous Non-Radioactive Cell Proliferation Assay Kit (Promega, Madison, Wis., USA) was used. Twenty microliters of the combined MTS/PMS solution was added into each well, incubated for 4 hr at 37° C., and the absorbance at 490 nm was measured using a Wallac Victor 3 plate reader. For the Sytox cell death assay, measuring loss of plasma membrane integrity, cells were incubated with 1 μM Sytox Green reagent (Molecular Probes, Eugene, Oreg.) for 30 min at 37° C. and the fluorescence intensity was measured using Wallac Victor 3 plate reader with excitation at 485 nm and emission at 545 nm. Next, 5 μl of 20% (v/v) Triton X-100 solution was added to each well and incubated for 1 hr at 37° C., and the signal was measured again. The ratio of values (percentage of dead cells in each well) before and after Triton X-100 treatment was calculated and normalized to the relevant controls not subjected to the cytotoxic stimuli. IC50 values were determined using Origin6 software (MicroCal, LLC, Northampton, Mass.).

Akt PH domain [2] = biological target: T1, Akt PH domain (Homo sapiens (Human), UniProt P31749); experiment: PH domain translocation assay (GFP fusion, plasma membrane); type: cell-based; settings: PDGF stimulation
Protocol: (§2) Cells were transfected with the corresponding GFP-fusion vectors, serum starved overnight, and incubated with 100 μM PITs or PIT-1 is for 2 hr, followed by stimulation with 100 ng/ml PDGF or 250 ng/ml PMA for 5 min. The translocation was analyzed using fluorescent microscope and was quantitated by counting the number of cells with translocated PH domains in five random fields.
To begin characterizing cellular activity of PITs, a PH domain translocation assay was performed, measuring PIP3-induced association of GFP-fused PH domains with the plasma membrane. […] Varnai P et al. (1999) J Biol Chem 274:10983-9. Several PH-domain-containing proteins, which are known to bind PIP3 specifically and efficiently, were examined. […] Oikawa T et al. (2004) Nat Cell Biol 6:420-6.
Target sequence in this assay (P31749 5-108): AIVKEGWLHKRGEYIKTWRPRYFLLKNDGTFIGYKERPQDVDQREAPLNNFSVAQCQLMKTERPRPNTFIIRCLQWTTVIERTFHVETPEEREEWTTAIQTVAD

Akt PH domain [3] = biological target: T1, Akt PH domain; experiment: Fluorescence polarization (FP) PIP3/Akt PH domain binding assay; settings: for IC50: 15 nM TMR-conjugated PIP3, PITs 6.25-200 μM, 30 min; for activity of PIT-1 analogs in vitro: negative controls
Source text: (§3) In order to identify compounds that disrupt the interaction between PIP3 and PH domains, a high-throughput fluorescence polarization (FP)-binding assay was developed using recombinant 1-123 amino acid N-terminal fragment of human Akt1 (also referred to herein simply as Akt), encompassing the PH domain (PH123 protein), and fluorescent […] PIP3 molecule. The amino acid sequence of human Akt1 is publicly available as, for example, GenBank Accession No. NP_001014432.1 (SEQ ID NO:1), and the corresponding DNA sequence is publicly available as, for example, GenBank Accession No. NM_001014432. Briefly, 5 μM recombinant GST fusion proteins containing 1-123 a.a. N-terminal fragment of human Akt1 (PH 123) or 100 nM 441-551 a.a. region of human PDK1 were incubated with 15 nM TMR-labeled PIP3, PIP2, or PIP5 in buffer containing 50 mM Tris-HCl (pH 7.5), 150 mM NaCl, and 5 mM b-ME for 15 min at room temperature in the dark. FP values were determined using Wallac Victor 3 plate reader. For the primary screen, 50,000 diverse small molecules from Harvard Institute of Chemistry and Cell Biology were screened (iccb.med.harvard.edu). Incubations were carried out for 1 hr. For secondary assays, PIT compounds were added at various concentrations (6.25, 12.5, 25, 50, 100, 150 and 200 μM), followed by a 30 min incubation. The inhibition rates were calculated as inhibition rate=[1−(compound-treated group/control group)]×100%, and IC50 value was determined using Origin6 software (MicroCal, LLC, Northampton, Mass.).
Target sequence in this assay (P31749 1-123): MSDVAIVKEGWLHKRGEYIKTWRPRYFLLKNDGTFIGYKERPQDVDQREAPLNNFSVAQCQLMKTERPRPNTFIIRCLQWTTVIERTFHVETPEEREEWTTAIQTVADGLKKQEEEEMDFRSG

PDK1 PH domain = PDK1 PH domain (Homo sapiens (Human), UniProt O15530); experiment: FP PIP3/PDK1 PH domain binding assay; settings: for IC50: 15 nM TMR-conjugated PIP3, 100 nM PDK1 PH domain, 30 min
Source text: as §3

Btk PH domain = Btk PH domain (Homo sapiens (Human), UniProt Q06187); experiment: PH domain translocation assay (GFP fusion, plasma membrane); type: cell-based; settings: PDGF stimulation
Protocol: as §2
To begin characterizing cellular activity of PITs, a PH domain translocation assay was performed, measuring PIP3-induced association of GFP-fused PH domains with the plasma membrane. This method provides useful means for monitoring status of the PH domain/PIP3 binding in the intact cells. Varnai P et al. (1999) J Biol Chem 274:10983-9. Several PH-domain-containing proteins, which are known to bind PIP3 specifically and efficiently, were examined. […] Oikawa T et al. (2004) Nat Cell Biol 6:420-6.

U87MG cells = experiment: cells; type: cell-based; settings: for IC50: U87MG cells, 48 hr, ATP assay, read-out: Cell Viability IC50
Protocol: as §1
To measure induction of cell death by PIT-1 derivatives, U87MG cells were incubated with PITs (1.56-300 μM) for 48 hr. Cell viability was determined using ATP assay.

Sequence of Btk PH domain (Q06187 3-133): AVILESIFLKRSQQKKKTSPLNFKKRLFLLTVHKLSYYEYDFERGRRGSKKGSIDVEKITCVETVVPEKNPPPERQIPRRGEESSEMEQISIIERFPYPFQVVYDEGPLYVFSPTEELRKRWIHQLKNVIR
Sequence of PDK1 PH domain (O15530 441-551): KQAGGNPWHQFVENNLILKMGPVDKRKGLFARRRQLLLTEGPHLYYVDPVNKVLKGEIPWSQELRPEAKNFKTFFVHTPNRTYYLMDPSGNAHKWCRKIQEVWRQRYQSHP

Compound | cell polarization and lamellipodia formation induced by PDGF (SUM159 cells) | PI3K-PDK1-Akt signaling in U87MG cells (PI3K-PDK1-Akt pathway) | viability of multiple cancer cell lines [1] | plasma membrane translocation of Akt PH domain (Akt PH domain [2]) | IC50 (Akt PH domain [3]) | activity of PIT-1 analogs in vitro (Akt PH domain [3]) | IC50 (PDK1 PH domain) | plasma membrane translocation of Btk PH domain (Btk PH domain) | IC50 (U87MG cells) | inhibition of binding of PIP3 to the PH domain of PDK1 (PDK1 PH domain; FIG. 4) | killing of U87MG cells compared with LY294002 (U87MG cells) | IC50 (U87MG cells; Homo sapiens, U-87 MG)
O=C(NC(=O)c1ccccc1)Nc1cc([N+](=O)[O-])cc(Cl)c1O [PIT-1i-1, reference compound] | failed to prevent cell polarization | failed to inhibit PDK1/Akt signaling | did not induce loss of viability | inactive | > 200 µM | inactive analogs | > 200 µM | inactive | > 200 µM | – | – | –
O=C(NC(=S)Nc1cc([N+](=O)[O-])cc(Cl)c1O)c1ccccc1 [PIT-1] | effective at preventing cell polarization and lamellipodia formation | suppressed activity of the PI3K-PDK1-Akt pathway | reduced viability of multiple cancer cell lines | significantly inhibited the translocation | 31 ± 2.5 µM | – | 66.7 ± 3.5 µM | significantly inhibited the translocation | – | inhibited binding of PIP3 to the PH domain of PDK1 | more pronounced than that by the PI3K inhibitor LY294002 | 39.9 ± 3.2 µM
COc1c(Cl)cc([N+](=O)[O-])cc1NC(=S)NC(=O)c1ccccc1 [PIT-1i-2] | failed to prevent cell polarization | failed to inhibit PDK1/Akt signaling | did not induce loss of viability | inactive | > 200 µM | inactive analogs | > 200 µM | inactive | > 200 µM | – | – | –
